We go through 9 compounds from US8461149B2, “Compounds useful as protein kinase inhibitors” (Vertex Pharmaceuticals Incorporated, priority 2007, dated 2013).

For the first assay, the target named is PLK1 (Homo sapiens, UniProt P53350). The experiment in a line: PLK1 inhibition assay (radioactive-phosphate incorporation). Type of assay: biochemical. As to conditions: 150 μM ATP, 300 μM peptide, 4 nM PLK1, 90 minutes, 25° C., read-out: Ki in the radioactive incorporation assay (Ki(app)). As for the experimental part: The compounds of the present invention are evaluated as inhibitors of human PLK kinase using the following assays.
Chain of PLK1 (P53350 whole entry): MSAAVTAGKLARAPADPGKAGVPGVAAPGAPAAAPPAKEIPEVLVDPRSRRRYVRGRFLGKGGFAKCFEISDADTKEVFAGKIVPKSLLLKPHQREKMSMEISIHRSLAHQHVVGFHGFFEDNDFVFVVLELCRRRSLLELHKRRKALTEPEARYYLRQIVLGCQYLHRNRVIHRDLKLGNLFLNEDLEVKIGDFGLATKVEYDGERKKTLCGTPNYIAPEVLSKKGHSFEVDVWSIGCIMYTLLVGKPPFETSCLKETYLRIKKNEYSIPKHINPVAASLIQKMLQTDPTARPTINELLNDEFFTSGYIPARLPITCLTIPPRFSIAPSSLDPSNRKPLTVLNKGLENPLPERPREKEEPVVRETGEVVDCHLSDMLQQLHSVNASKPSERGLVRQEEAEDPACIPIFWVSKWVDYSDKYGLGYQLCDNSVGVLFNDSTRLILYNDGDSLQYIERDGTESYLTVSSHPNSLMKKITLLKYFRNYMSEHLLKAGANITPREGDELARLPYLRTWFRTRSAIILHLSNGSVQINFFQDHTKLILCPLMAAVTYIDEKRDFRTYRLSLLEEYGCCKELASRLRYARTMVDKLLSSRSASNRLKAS
Compounds were screened for their ability to inhibit PLK1 using a radioactive-phosphate incorporation assay. Assays were carried out in a mixture of 25 mM HEPES (pH 7.5), 10 mM MgCl2, 0.1% BSA, and 2 mM DTT. Final substrate concentrations were 150 μM (350 μM for determining values of less than 1 nM) [γ-33P]ATP (115 mCi 33P ATP/mmol ATP, Amersham Pharmacia Biotech/Sigma Chemicals) and 300 μM (450 μM for determining values of <1 nM) peptide (KKKISDELMDATFADQEAK) (SEQ ID NO:1). Assays were carried out at 25° C. in the presence of 4 nM (1 nM for determining values of less than 1 nM) PLK1. An assay stock buffer solution was prepared containing all of the reagents listed above, with the exception of ATP and the test compound of interest. 30 μL of the stock solution was placed in a 96 well plate followed by addition of 2 μL of DMSO stock containing serial dilutions of the test compound (typically starting from a final concentration of 10 μM with 2-fold serial dilutions) in duplicate (final DMSO concentration 5%). The plate was pre-incubated for 10 minutes at 25° C. and the reaction initiated by addition of 8 μL [γ-33P]ATP (final concentration 150 μM (350 μM for determining values of less than 1 nM))).
The reaction was stopped after 90 minutes (240 minutes for determining values of less than 1 nM) by the addition of 100 μL 0.14M phosphoric acid. A multiscreen phosphocellulose filter 96-well plate (Millipore, Cat. No. MAPHN0B50) was pretreated with 100 μL 0.2M phosphoric acid prior to the addition of 125 μL of the stopped assay mixture. The plate was washed with 200 μL 0.2M phosphoric acid for 4 times. After drying, 100 μL Optiphase ‘SuperMix’ liquid scintillation cocktail (Perkin Elmer) was added to the well prior to scintillation counting (1450 Microbeta Liquid Scintillation Counter, Wallac).
After removing mean background values for all of the data points, Ki(app) data were calculated from non-linear regression analysis of the initial rate data using the Prism software package (GraphPad Prism version 3.0cx for Macintosh, GraphPad Software, San Diego Calif., USA).
With `COc1cc(C(=O)NC2CC2)ccc1Nc1ncc2c(n1)N([C@@H]1CCC(F)(F)C1)CC(C)(C)C(=O)N2C` [Compound I-1, (R)—N-cyclopropyl-4-(9-(3,3-difluorocyclopentyl)-5,7,7-trimethyl-6-oxo-6,7,8,9-tetrahydro-5H-pyrimido[4,5-b][1,4]diazepin-2-ylamino)-3-methoxybenzamide], the Ki lay in the range of 1 to 10 nM.

On to `COc1cc(C(=O)NC2CC2)ccc1Nc1ncc2c(n1)N([C@@H]1CCC(F)(F)C1)CC1(CC1)C(=O)N2C` [Compound I-4, (R)—N-cyclopropyl-4-(9′-(3,3-difluorocyclopentyl)-5′-methyl-6′-oxo-5′,6′,8′,9′-tetrahydrospiro[cyclopropane-1,7′-pyrimido[4,5-b][1,4]diazepine]-2′-ylamino)-3-methoxybenzamide], for which the Ki lay in the range of 1 to 10 nM. Regarding `COc1cc(C(=O)N[C@@H]2CCC(F)(F)C2)ccc1Nc1ncc2c(n1)N([C@@H]1CCC(F)(F)C1)CC1(CC1)C(=O)N2C` [Compound I-5, N-((R)-3,3-difluorocyclopentyl)-4-(9′-((R)-3,3-difluorocyclopentyl)-5′-methyl-6′-oxo-5′,6′,8′,9′-tetrahydrospiro[cyclopropane-1,7′-pyrimido[4,5-b][1,4]diazepine]-2′-ylamino)-3-methoxybenzamide], the Ki was 1 to 10 nM.

Staying with this assay, now noted: conditions for values of less than 1 nM: 350 μM ATP, 450 μM peptide, 1 nM PLK1, 240 minutes, 25° C., read-out: Ki in the radioactive incorporation assay (Ki(app)).
Turning to `COc1cc(C(=O)N[C@@H]2CC[C@@H](F)C2)ccc1Nc1ncc2c(n1)N([C@@H]1CCC(F)(F)C1)CC(C)(C)C(=O)N2C` [Compound I-2, 4-(9-((R)-3,3-difluorocyclopentyl)-5,7,7-trimethyl-6-oxo-6,7,8,9-tetrahydro-5H-pyrimido[4,5-b][1,4]diazepin-2-ylamino)-N-((1R,3R)-3-fluorocyclopentyl)-3-methoxybenzamide], the Ki is below 1 nM. On to `COc1cc(C(=O)N[C@@H]2CCC(F)(F)C2)ccc1Nc1ncc2c(n1)N([C@@H]1CCC(F)(F)C1)CC(C)(C)C(=O)N2C` [Compound I-3, N-((R)-3,3-difluorocyclopentyl)-4-(9-((R)-3,3-difluorocyclopentyl)-5,7,7-trimethyl-6-oxo-6,7,8,9-tetrahydro-5H-pyrimido[4,5-b][1,4]diazepin-2-ylamino)-3-methoxybenzamide], for which the Ki was below 1 nM. With `CCNC(=O)c1ccc(Nc2ncc3c(n2)N([C@@H]2CCC(F)(F)C2)[C@H](CC)c2nncn2-3)c(OC)c1` [Compound I-6, 4-((R)-5-((R)-3,3-difluorocyclopentyl)-4-ethyl-4,5-dihydro-[1,2,4]triazolo[4,3-f]pteridin-7-ylamino)-N-ethyl-3-methoxybenzamide], the Ki is below 1 nM. Take `CC[C@@H]1c2nncn2-c2cnc(Nc3ccc(C(=O)NC4CC4)cc3OC)nc2N1[C@@H]1CCC(F)(F)C1` [Compound I-7, N-cyclopropyl-4-((R)-5-((R)-3,3-difluorocyclopentyl)-4-ethyl-4,5-dihydro-[1,2,4]triazolo[4,3-f]pteridin-7-ylamino)-3-methoxybenzamide]: the Ki is below 1 nM. As for `CCNC(=O)c1ccc(Nc2ncc3c(n2)N([C@@H]2CCC(F)(F)C2)[C@H](CC)C(=O)N3C)c(OC)c1` [Compound I-8, 4-((R)-8-((R)-3,3-difluorocyclopentyl)-7-ethyl-5-methyl-6-oxo-5,6,7,8-tetrahydropteridin-2-ylamino)-N-ethyl-3-methoxybenzamide], the Ki is below 1 nM. For `CC[C@@H]1C(=O)N(C)c2cnc(Nc3ccc(C(=O)NC4CC4)cc3OC)nc2N1[C@@H]1CCC(F)(F)C1` [Compound I-9, N-cyclopropyl-4-((R)-8-((R)-3,3-difluorocyclopentyl)-7-ethyl-5-methyl-6-oxo-5,6,7,8-tetrahydropteridin-2-ylamino)-3-methoxybenzamide], the Ki was below 1 nM.
